The results in this text go back to US20240400553A1, “AMINE BASED MATRIPTASE 2 INHIBITORS AND USES THEREOF” (Disc Medicine, Inc., priority 2023, published 2024).

One experiment has as its target T1, Human Recombinant Matriptase 2 (Homo sapiens, UniProt Q8IU80).
T1 construct: made in house
T1 sequence (Q8IU80 1-811): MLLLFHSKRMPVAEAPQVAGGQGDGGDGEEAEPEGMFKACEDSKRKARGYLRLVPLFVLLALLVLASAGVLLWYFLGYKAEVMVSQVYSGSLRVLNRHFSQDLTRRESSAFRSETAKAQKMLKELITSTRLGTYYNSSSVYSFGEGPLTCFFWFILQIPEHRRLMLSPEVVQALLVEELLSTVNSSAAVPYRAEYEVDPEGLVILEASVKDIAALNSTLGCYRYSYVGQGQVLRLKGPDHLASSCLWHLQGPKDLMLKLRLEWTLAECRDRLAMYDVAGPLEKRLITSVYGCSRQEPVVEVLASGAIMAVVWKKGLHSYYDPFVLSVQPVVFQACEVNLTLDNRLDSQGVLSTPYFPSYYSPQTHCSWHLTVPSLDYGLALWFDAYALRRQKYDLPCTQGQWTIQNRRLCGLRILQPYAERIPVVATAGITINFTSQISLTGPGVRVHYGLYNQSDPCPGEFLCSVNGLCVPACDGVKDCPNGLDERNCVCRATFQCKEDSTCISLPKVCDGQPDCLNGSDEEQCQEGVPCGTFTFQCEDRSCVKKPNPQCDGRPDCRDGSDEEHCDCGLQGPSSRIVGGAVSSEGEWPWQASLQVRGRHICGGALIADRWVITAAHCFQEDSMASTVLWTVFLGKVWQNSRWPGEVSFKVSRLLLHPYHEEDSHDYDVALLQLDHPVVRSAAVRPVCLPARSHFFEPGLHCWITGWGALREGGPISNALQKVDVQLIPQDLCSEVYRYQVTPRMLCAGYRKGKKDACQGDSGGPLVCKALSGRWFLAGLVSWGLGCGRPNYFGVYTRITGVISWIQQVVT
The experiment can be described thus: Matriptase 2 inhibition, fluorescence based assay (Method I). The format is biochemical. Conditions: Table A; Ki of Matriptase-2; read-out: Mat-2 Ki. The essentials: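 Fluorogenic readout (Ex 360/Em 480 nm) taken 60 min after adding 62 μM Boc-Gln-Ala-Arg-AMC, following 30-min enzyme–compound preincubation at 25 °C. Conditions: 3.5 nM in-house enzyme, pH 7.5 Tris/NaCl/gelatin buffer, 1% DMSO; percent inhibition versus concentration fitted by variable-slope sigmoidal regression.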
On to `NCc1ccc2cc(C(=O)OCCn3ccnc3)n(Cc3cc(NS(=O)(=O)Cc4ccccc4)cc4ccccc34)c2n1` [Compound 93, 2-(1H-imidazol-1-yl)-ethyl 6-(aminomethyl)-1-{[3-(phenylmethanesul-fonamido)naphthalen-1-yl]methyl}-1H-pyrrolo-[2,3-b]pyridine-2-car-boxylate], for which the Ki – broadly, a measure of affinity in units of concentration, obtained from inhibition or displacement – lay in the range of 100 to 500 nM.

On to `Cc1cccc(C)c1CS(=O)(=O)Nc1cc(Cn2c(C(=O)OCCN3CCN(C)CC3)cc3ccc(CN)nc32)c2ccccc2c1` [Compound 186], for which the inhibition constant (Ki) is not above 100 nM.

`Cc1cccc(C)c1CS(=O)(=O)Nc1cc(Cn2c(C(=O)NCCN3CCOCC3)cc3ccc(CN)nc32)c2ccccc2c1` [Compound 196, 6-(aminomethyl)-1-({3-[(2,6-dimethylphenyl)-methanesulfonamido]-naphthalen-1-yl}meth-yl)-N-[2-(morpholin-4-yl)ethyl]-1H-pyrrolo-[2,3-b]pyridine-2-car-boxamide]: the Ki was not above 100 nM.

Consider `CNC(=O)c1cc2ccc(CN)nc2n1Cc1cc(NS(=O)(=O)CC[C@@H]2CCCN2)cc2ccccc12` [Compound 3], for which the Ki lay within 100 to 500 nM.

As to `CN1CCC(CCS(=O)(=O)NC(=O)c2cc3ccc(CN)nc3n2Cc2cc(NS(=O)(=O)Cc3ccccc3)cc3ccccc23)CC1` [Compound 83, 6-(aminomethyl)-N-[2-(1-methylpiperidin-4-yl)-ethanesulfonyl]-1-{[3-(phenylmethanesulfon-amido)naphthalen-1-yl]-methyl}-1H-pyrrolo[2,3-b]pyridine-2-carboxamide], the Ki is 100 to 500 nM.

Still in this experiment, the particulars now being: Table A; Ki of Matriptase-2 given as class symbols; read-out: Mat-2 Ki.
Regarding `CS(=O)(=O)N1CCC(CNC(=O)Nc2cc(Cn3c(C(=O)O)cc4ccc(CN)nc43)c3ccccc3c2)CC1` [Compound 293, 6-(aminomethyl)-1-{[3-({[(1-methanesulfonyl-piperidin-4-yl)methyl]-carbamoyl}amino)naph-thalen-1-yl]methyl}-1H-pyrrolo[2,3-b]pyridine-2-carboxylic acid], the Ki lay within 100 to 500 nM.

For `CCN1C[C@@H](S(=O)(=O)Nc2cc(Cn3c(C(=O)O)cc4ccc(CN)nc43)c3ccccc3c2)CC1=O` (racemic) [Compound 282, rac-6-(aminomethyl)-1-({3-[(3R)-1-ethyl-5-oxopyrrolidine-3-sulfon-amido]naphthalen-1-yl}-methyl)-1H-pyrrolo[2,3-b]pyridine-2-carboxylic acid], the Ki was 500 to 3000 nM.

As to `COCCN1CCC(CS(=O)(=O)Nc2cc(Cn3c(C(=O)O)cc4ccc(CN)nc43)c3ccccc3c2)CC1` [Compound 211, 6-(aminomethyl)-1-[(3-{[1-(2-methoxyethyl)-piperidin-4-yl]methane-sulfonamido}naphthalen-1-yl)methyl]-1H-pyr-rolo[2,3-b]pyridine-2-carboxylic acid], the Ki is not above 100 nM.

Consider `CCOC(=O)c1cc2ccc(CN)nc2n1Cc1cc(NS(=O)(=O)Cc2ccsc2)cc2ccccc12` [Compound 291], for which the Ki was 100 to 500 nM.

In the case of `Cc1cccc(CS(=O)(=O)Nc2cc(Cn3c(C(=O)O)cc4ccc(CN)nc43)c3ccccc3c2)c1` [Compound 238, 6-(aminomethyl)-1-({3-[(3-methylphenyl)meth-anesulfonamido]naph-thalen-1-yl}methyl)-1H-pyrrolo[2,3-b]pyridine-2-carboxylic acid], the inhibitory constant (Ki) fell in the range of 100 to 500 nM.

`NCc1ccc2cc(C(=O)O)n(Cc3cc(NS(=O)(=O)[C@H]4CCNC4)cc4ccccc34)c2n1` [Compound 259, 6-(aminomethyl)-1-({3-[(3S)-pyrrolidine-3-sul-fonamido]naphthalen-1-yl}methyl)-1H-pyrrolo-[2,3-b]pyridine-2-car-boxylic acid]: the Ki was in the range of 100 to 500 nM.

Turning to `COCCN1CCC(CS(=O)(=O)Nc2cc(Cn3c(C(=O)O)cc4ccc(CN)cc43)c3ccccc3c2)CC1` [Compound 390, 6-(aminomethyl)-1-[(3-{[1-(2-methoxyethyl)-piperidin-4-yl]methane-sulfonamido}naphthalen-1-yl)methyl]-1H-indole-2-carboxylic acid], the inhibition constant Ki fell in the range of 100 to 500 nM.
